# From article PMC9848300, “Discovery of novel enasidenib analogues targeting inhibition of mutant isocitrate dehydrogenase 2 as antileukaemic agents” (Journal of Enzyme Inhibition and Medicinal Chemistry, 2023)
# What was measured:
# Format in all cases: cell-based
# BT-549 = assay: NCI 60 antitumor screening (single dose / five doses); conditions: Homo sapiens, BT-549, read-out: Growth inhibition percentage (GI %)
# T-47D = assay: as above; conditions: Homo sapiens, T47D, read-out: Growth inhibition percentage (GI %)
# DU-145 = assay: as above; conditions: Homo sapiens, DU-145, read-out: Growth inhibition percentage (GI %)
# HCT-116 = assay: as above; conditions: Homo sapiens, HCT-116, read-out: Growth inhibition percentage (GI %)
# LOX IMVI = assay: as above; conditions: Homo sapiens, LOX IMVI, read-out: Growth inhibition percentage (GI %)
# SNB-75 = assay: as above; conditions: Homo sapiens, SNB-75, read-out: Growth inhibition percentage (GI %)
# PC-3 = assay: NCI 60 antitumor screening (single dose); conditions: Homo sapiens, PC-3, read-out: Growth inhibition percentage (GI %)
# How it was run: (§1)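 Under the NCI Drug Evaluation Branch protocol, each compound is screened at one 10 μM concentration on the 60-line human tumour panel. Growth of treated cells is expressed as G%, and inhibition is reported as 100 − G%.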
# HOP-62 = assay: NCI 60 antitumor screening (single dose); conditions: Homo sapiens; HOP-62 (non-small cell lung cancer), single dose 10 μM; read-out: Growth inhibition percentage (GI %)
# How it was run: (§2)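 At one concentration (10 μM), compounds are run in triplicate on 60 human cancer lines per the NCI method. Treated-cell growth is recorded as G%. Reported inhibition equals 100 − G%.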
# SNB-19 = assay: NCI 60 antitumor screening (single dose); conditions: Homo sapiens; SNB-19 (CNS cancer), single dose 10 μM; read-out: Growth inhibition percentage (GI %)
# How it was run: as §1
# U251 = assay: NCI 60 antitumor screening (single dose); conditions: Homo sapiens, U-251; U251 (CNS cancer), single dose 10 μM; read-out: Growth inhibition percentage (GI %)
# How it was run: as §2
# HCC-2998 = assay: NCI 60 antitumor screening (single dose); conditions: Homo sapiens; HCC-2998 (colon cancer), single dose 10 μM; read-out: Growth inhibition percentage (GI %)
# How it was run: as §2
# OVCAR-8 = assay: NCI 60 antitumor screening (single dose); conditions: Homo sapiens, OVCAR-8, read-out: Growth inhibition percentage (GI %)
# How it was run: as §1
# A549/ATCC = assay: NCI 60 antitumor screening (single dose); conditions: Homo sapiens; A549/ATCC (non-small cell lung cancer), single dose 10 μM; read-out: Growth inhibition percentage (GI %)
# How it was run: as §1
# OVCAR-5 = assay: NCI 60 antitumor screening (single dose); conditions: Homo sapiens, OVCAR-5, read-out: Growth inhibition percentage (GI %)
# How it was run: as §2
# OVCAR-4 = assay: NCI 60 antitumor screening (single dose); conditions: Homo sapiens, OVCAR-4, read-out: Growth inhibition percentage (GI %)
# How it was run: as §1
# NCI-H23 = assay: NCI 60 antitumor screening (single dose); conditions: Homo sapiens; NCI-H23 (non-small cell lung cancer), single dose 10 μM; read-out: Growth inhibition percentage (GI %)
# How it was run: as §2
# NCI-H322M = assay: NCI 60 antitumor screening (single dose); conditions: Homo sapiens; NCI-H322M (non-small cell lung cancer), single dose 10 μM; read-out: Growth inhibition percentage (GI %)
# How it was run: as §1
# M14 = assay: NCI 60 antitumor screening (single dose); conditions: Homo sapiens, M14, read-out: Growth inhibition percentage (GI %)
# How it was run: as §1
# NCI-H522 = assay: NCI 60 antitumor screening (single dose); conditions: Homo sapiens; NCI-H522 (non-small cell lung cancer), single dose 10 μM; read-out: Growth inhibition percentage (GI %)
# How it was run: as §2
# TK-10 = assay: NCI 60 antitumor screening (single dose); conditions: Homo sapiens, TK-10, read-out: Growth inhibition percentage (GI %)
# How it was run: as §1
# SK-OV-3 = assay: NCI 60 antitumor screening (single dose); conditions: Homo sapiens, SK-OV-3, read-out: Growth inhibition percentage (GI %)
# How it was run: as §2
# CAKI-1 = assay: NCI 60 antitumor screening (single dose); conditions: Homo sapiens, CAKI-1, read-out: Growth inhibition percentage (GI %)
# How it was run: as §1
# HS 578T = assay: NCI 60 antitumor screening (single dose); conditions: Homo sapiens, Hs-578T, read-out: Growth inhibition percentage (GI %)
# How it was run: as §1
# KM 12 = assay: NCI 60 antitumor screening (single dose); conditions: Homo sapiens, KM12; KM 12 (colon cancer), single dose 10 μM; read-out: Growth inhibition percentage (GI %)
# How it was run: as §1
# MCF7 = assay: NCI 60 antitumor screening (single dose); conditions: Homo sapiens, MCF7, read-out: Growth inhibition percentage (GI %)
# How it was run: as §1
# NCI-H226 = assay: NCI 60 antitumor screening (single dose); conditions: Homo sapiens; NCI-H226 (non-small cell lung cancer), single dose 10 μM; read-out: Growth inhibition percentage (GI %)
# How it was run: as §1
# NCI/ADR-RES = assay: NCI 60 antitumor screening (single dose / five doses); conditions: Homo sapiens, NCI/ADR-RES, read-out: Growth inhibition percentage (GI %)
smiles,measurement,setting,value
"O=[N+]([O-])c1cc(/C=N/Nc2nc(N/N=C/c3ccc(Cl)c([N+](=O)[O-])c3)nc(N3CCOCC3)n2)ccc1Cl [compound 6i, 2,4-Bis[(E)-2-[(4-Chloro-3-nitrophenyl)methylidene]hydrazin-1-yl]-6-(morpholin-4-yl)-1,3,5-triazine]",inhibition at 10 µM,BT-549,-0.85%
same,inhibition at 10 µM,T-47D,0.85%
same,inhibition at 10 µM,DU-145,-11.3%
same,inhibition at 10 µM,HCT-116,7.64%
same,inhibition at 10 µM,LOX IMVI,9.76%
same,inhibition at 10 µM,SNB-75,-7.64%
same,inhibition at 10 µM,PC-3,-0.63%
same,inhibition at 10 µM,HOP-62,-5.02%
same,inhibition at 10 µM,SNB-19,0.85%
same,inhibition at 10 µM,U251,-5.95%
same,inhibition at 10 µM,HCC-2998,-5.78%
same,inhibition at 10 µM,OVCAR-8,3.42%
same,inhibition at 10 µM,A549/ATCC,-8.71%
same,inhibition at 10 µM,OVCAR-5,-9.28%
same,inhibition at 10 µM,OVCAR-4,-12.5%
same,inhibition at 10 µM,NCI-H23,3.66%
same,inhibition at 10 µM,NCI-H322M,2.28%
same,inhibition at 10 µM,M14,-11.5%
same,inhibition at 10 µM,NCI-H522,0.32%
same,inhibition at 10 µM,TK-10,-24.4%
same,inhibition at 10 µM,SK-OV-3,-22.5%
same,inhibition at 10 µM,CAKI-1,-3.02%
same,inhibition at 10 µM,HS 578T,-5.27%
same,inhibition at 10 µM,KM 12,6.79%
same,inhibition at 10 µM,MCF7,56.7%
same,inhibition at 10 µM,NCI-H226,-3.53%
same,inhibition at 10 µM,NCI/ADR-RES,-0.3%
